Reference: patent US10829484B2, “Compounds and methods for kinase modulation, and indications therefor” (Plexxikon Inc., priority 2015, dated 2020)

What follows are compounds tested against T1, BaF3-FLT3-ITD-D835V (Homo sapiens, UniProt P36888, INS600HVDFREYEYD/D835V, cells depend on it) (assay: CTB viability assay CS0048, BaF3-FLT3-ITD-D835V). Conditions: BaF3-FLT3-ITD-D835V cells, CellTiter Blue viability, 72 hours; read-out: Cell Assay: CS0048: BaF3-FLT3-ITD-D835V CTB:IC50.
T1 sequence (P36888 with tags, fused parts or gaps INS600HVDFREYEYD/D835V): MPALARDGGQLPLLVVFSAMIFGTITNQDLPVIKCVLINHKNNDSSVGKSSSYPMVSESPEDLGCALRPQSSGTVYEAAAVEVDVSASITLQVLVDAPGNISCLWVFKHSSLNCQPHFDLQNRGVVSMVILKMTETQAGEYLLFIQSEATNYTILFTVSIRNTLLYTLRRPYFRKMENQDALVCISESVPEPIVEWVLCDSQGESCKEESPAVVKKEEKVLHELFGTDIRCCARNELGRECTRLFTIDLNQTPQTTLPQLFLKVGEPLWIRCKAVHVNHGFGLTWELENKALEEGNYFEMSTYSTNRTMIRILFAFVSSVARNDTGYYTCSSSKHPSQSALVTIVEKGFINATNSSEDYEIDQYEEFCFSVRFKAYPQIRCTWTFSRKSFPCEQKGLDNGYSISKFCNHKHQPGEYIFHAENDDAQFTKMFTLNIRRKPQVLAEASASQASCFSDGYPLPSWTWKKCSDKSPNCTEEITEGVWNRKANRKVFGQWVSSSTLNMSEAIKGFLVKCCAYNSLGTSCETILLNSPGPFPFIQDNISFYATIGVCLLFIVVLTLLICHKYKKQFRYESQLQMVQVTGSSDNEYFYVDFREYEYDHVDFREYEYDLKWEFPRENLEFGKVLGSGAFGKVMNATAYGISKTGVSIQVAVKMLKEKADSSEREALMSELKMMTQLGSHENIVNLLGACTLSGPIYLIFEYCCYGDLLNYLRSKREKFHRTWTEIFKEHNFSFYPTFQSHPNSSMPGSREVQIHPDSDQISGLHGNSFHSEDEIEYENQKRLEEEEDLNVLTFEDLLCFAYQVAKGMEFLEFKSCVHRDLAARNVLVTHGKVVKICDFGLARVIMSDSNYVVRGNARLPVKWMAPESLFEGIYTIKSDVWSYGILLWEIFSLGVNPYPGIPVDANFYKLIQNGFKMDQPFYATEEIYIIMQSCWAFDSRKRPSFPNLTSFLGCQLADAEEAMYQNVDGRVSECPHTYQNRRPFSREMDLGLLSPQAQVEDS
Type: cell-based, murine
Source text: Gene constructs containing the human FLT3 sequences FLT3-ITD, FLT3-ITD-F691L, FLT3-ITD-D835V and FLT3-D835V were synthesized by reverse translation of the human protein sequences, with codons optimized for mammalian expression. Sequence of the internal tandem duplication (ITD) was based on the MV4-11 ITD sequence. Synthetic DNA constructs were cloned into the pMSCV puro retroviral vector (Clontech) and transfected into the EcoPack2-293 packaging cell line (Clontech) to generate retroviruses that contain the different FLT3 constructs. Viruses were transduced into the IL-3-dependent, murine […] cell line, Ba/F3, and selected for puromycin resistance and IL-3 independence. All cell lines were cloned by limiting dilution and clones were used for all subsequent cell assays. Overexpression of the FLT3 mutants in the Ba/F3 cells results in constitutive phosphorylation of the exogenous FLT3 protein, which is required for IL-3 independence.
Cell lines were serum starved overnight in media containing 0.5% FBS, plated at 15,000 cells/well in 96-well white-walled tissue culture plates, and 3-fold serial dilutions of test compounds of Formula I were added for 72 hours at 37° C. CellTiter Blue (CTB, Promega) was added and incubated for an additional 3 hours at 37° C. Fluorescence was read at 560 nm excitation, 590 nm emission. Wells with CTB+media only were used for background subtraction, and the fluorescence of compound-treated cells was normalized to the fluorescence of DMSO-treated cells. IC50s were determined using Igor Pro software. All compounds are assayed in duplicate cell plates.
`O=C(Cc1ccc(-c2ccc(Nc3ccccc3)nc2)cc1F)Nc1cc(C2(C(F)(F)F)CC2)on1` [P-003, 2-[4-(6-anilino-3-pyridyl)-2-fluoro-phenyl]-N-[5-[1-(trifluoromethyl)cyclopropyl]isoxazol-3-yl]acetamide] gave a GI50 of 0.01 to 0.05 µM. Compound `O=C(Cc1ccc(-c2cnc(Nc3ccccc3)cn2)cc1F)Nc1cc(C2(C(F)(F)F)CC2)on1` [P-005, 2-[4-(5-anilinopyrazin-2-yl)-2-fluorophenyl]-N-[5-[1-(trifluoromethyl)cyclopropyl]isoxazol-3-yl]acetamide] has a GI50 of 0.01 to 0.05 µM. `CCn1cnc(Nc2ncc(-c3ccc(CC(=O)Nc4cc(C5(C(F)(F)F)CC5)on4)c(F)c3)cn2)c1` [P-068, 2-[4-[2-[(1-ethylimidazol-4-yl)amino]pyrimidin-5-yl]-2-fluorophenyl]-N-[5-[1-(trifluoromethyl)cyclopropyl]isoxazol-3-yl]acetamide] gave a GI50 of 0.01 to 0.05 µM. Compound `Cn1cc(Nc2ncc(-c3ccc(CC(=O)Nc4cc(C5(C(F)(F)F)CC5)on4)c(F)c3)cn2)c(C(F)(F)F)n1` [P-077, 2-[2-fluoro-4-[2-[[1-methyl-3-(trifluoromethyl)pyrazol-4-yl]amino]pyrimidin-5-yl]phenyl]-N-[5-[1-(trifluoromethyl)cyclopropyl]isoxazol-3-yl]acetamide] has a GI50 of 0.01 to 0.05 µM. `Cn1nccc1Nc1ncc(-c2ccc(CC(=O)Nc3cc(C4(C(F)(F)F)CC4)on3)c(F)c2)cn1` [P-091, 2-[2-fluoro-4-[2-[(2-methylpyrazol-3-yl)amino]pyrimidin-5-yl]phenyl]-N-[5-[1-(trifluoromethyl)cyclopropyl]isoxazol-3-yl]acetamide] gave a GI50 of 0.01 to 0.05 µM. `CCn1nccc1Nc1ncc(-c2ccc(CC(=O)Nc3cc(C4(C(F)(F)F)CC4)on3)c(F)c2)cn1` [P-103, 2-[4-[2-[(2-ethylpyrazol-3-yl)amino]pyrimidin-5-yl]-2-fluorophenyl]-N-[5-[1-(trifluoromethyl)cyclopropyl]isoxazol-3-yl]acetamide] showed a GI50 of 0.01 to 0.05 µM. In the case of `Cn1cnc(Nc2ncc(-c3ccc(CC(=O)Nc4cc(C5(C)CC5)no4)c(F)c3)cn2)c1` [P-112, 2-[2-fluoro-4-[2-[(1-methylimidazol-4-yl)amino]pyrimidin-5-yl]phenyl]-N-[3-(1-methylcyclopropyl)isoxazol-5-yl]acetamide], the GI50 is reported as 0.01 to 0.05 µM. Work on `Cc1cc(C(=O)N(C)C)ccc1Nc1ncc(-c2ccc(CC(=O)Nc3cc(C4(C(F)(F)F)CC4)on3)c(F)c2)cn1` [P-113, 4-[[5-[3-fluoro-4-[2-oxo-2-[[5-[1-(trifluoromethyl)cyclopropyl]isoxazol-3-yl]amino]ethyl]phenyl]pyrimidin-2-yl]amino]-N,N,3-trimethyl-benzamide] yielded a GI50 of 0.01 to 0.05 µM. With `CC(O)c1nn(C)cc1Nc1ncc(-c2ccc(CC(=O)Nc3cc(C4(C(F)(F)F)CC4)on3)c(F)c2)cn1` (stereo not drawn) [P-114, 2-[2-fluoro-4-[2-[[3-(1-hydroxyethyl)-1-methylpyrazol-4-yl]amino]pyrimidin-5-yl]phenyl]-N-[5-[1-(trifluoromethyl)cyclopropyl]isoxazol-3-yl]acetamide] the GI50 was 0.01 to 0.05 µM. `Cc1nn(C)cc1Nc1ncc(-c2ccc(CC(=O)Nc3cc(C4(C(F)(F)F)CC4)on3)c(F)c2)c(C)n1` [P-116, 2-[4-[2-[(1,3-dimethylpyrazol-4-yl)amino]-4-methyl-pyrimidin-5-yl]-2-fluorophenyl]-N-[5-[1-(trifluoromethyl)cyclopropyl]isoxazol-3-yl] acetamide] showed a GI50 of 0.01 to 0.05 µM. `COc1nn(C)cc1Nc1ncc(-c2ccc(CC(=O)Nc3cc(C4(C(F)(F)F)CC4)on3)c(F)c2)c(OC)n1` [P-123, 2-[2-fluoro-4-[4-methoxy-2-[(3-methoxy-1-methyl-pyrazol-4-yl)amino]pyrimidin-5-yl]phenyl]-N-[5-[1-(trifluoromethyl)cyclopropyl]isoxazol-3-yl]acetamide] was tested, and the GI50 was 0.01 to 0.05 µM. Work on `COc1nn(C)cc1Nc1ncc(-c2ccc(CC(=O)Nc3cc(C4(C(F)(F)F)CC4)on3)c(F)c2)c(C)n1` [P-124, 2-[2-fluoro-4-[2-[(3-methoxy-1-methylpyrazol-4-yl)amino]-4-methyl-pyrimidin-5-yl]phenyl]-N-[5-[1-(trifluoromethyl)cyclopropyl]isoxazol-3-yl] acetamide] yielded a GI50 of 0.01 to 0.05 µM. In the case of `COc1nn(C2CC2)cc1Nc1ncc(-c2ccc(CC(=O)Nc3cc(C4(C(F)(F)F)CC4)on3)c(F)c2)c(OC)n1` [P-136, 2-[4-[2-[(1-cyclopropyl-3-methoxypyrazol-4-yl)amino]-4-methoxy-pyrimidin-5-yl]-2-fluorophenyl]-N-[5-[1-(trifluoromethyl)cyclopropyl]isoxazol-3-yl]acetamide], the GI50 is reported as 0.01 to 0.05 µM. `COCCOc1nn(C)cc1Nc1ncc(-c2ccc(CC(=O)Nc3cc(C4(C(F)(F)F)CC4)on3)c(F)c2)cn1` [P-148, 2-[2-fluoro-4-[2-[[3-(2-methoxyethoxy)-1-methylpyrazol-4-yl]amino]pyrimidin-5-yl]phenyl]-N-[5-[1-(trifluoromethyl)cyclopropyl]isoxazol-3-yl]acetamide] showed a GI50 of 0.01 to 0.05 µM. `Cc1nn(C)cc1Nc1ncc(-c2ccc(CC(=O)Nc3cc(C4(C(F)(F)F)CC4)on3)c(F)c2)c(Cl)n1` [P-157, 2-[4-[4-chloro-2-[(1,3-dimethylpyrazol-4-yl)amino]pyrimidin-5-yl]-2-fluoro-phenyl]-N-[5-[1-(trifluoromethyl)cyclopropyl]isoxazol-3-yl]acetamide] showed a GI50 of 0.01 to 0.05 µM. `COc1cc(Nc2ncc(-c3ccc(CC(=O)Nc4cc(C5(C(F)(F)F)CC5)on4)c(F)c3)cn2)n(C)n1` [P-164, 2-[2-fluoro-4-[2-[(5-methoxy-2-methyl-pyrazol-3-yl)amino]pyrimidin-5-yl]phenyl]-N-[5-[1-(trifluoromethyl)cyclopropyl]isoxazol-3-yl]acetamide] gave a GI50 of 0.01 to 0.05 µM. For `Cn1cnc(Nc2ncc(-c3ccc(CC(=O)Nc4cc(C5(C(F)F)CC5)on4)c(F)c3)cn2)c1` [P-184, N-[5-[1-(difluoromethyl)cyclopropyl]isoxazol-3-yl]-2-[2-fluoro-4-[2-[(1-methylimidazol-4-yl)amino]pyrimidin-5-yl]phenyl] acetamide], the GI50 was 0.01 to 0.05 µM. `CCc1n[nH]cc1Nc1ncc(-c2ccc(CC(=O)Nc3cc(C4(C(F)(F)F)CC4)on3)c(F)c2)cn1` [P-214, 2-(4-(2-((3-ethyl-1H-pyrazol-4-yl)amino)pyrimidin-5-yl)-2-fluorophenyl)-N-(5-(1-(trifluoromethyl)cyclopropyl)isoxazol-3-yl)acetamide] gave a GI50 of 0.01 to 0.05 µM.
